Columns and labels:
[1] = Mixing compatibility of additives with zinc chloride fixative paste; format: physicochemical; conditions: for mixing with the zinc chloride fixative paste: additive in low concentration
Description: Podophyllin is a natural plant extract from the dried roots of either Podophyllum peltatum or P. emodi. It is an antimitotic agent used for many years in the treatment of human warts. (Fitzpatrick T B, et al. Dermatology in General Medicine, McGraw-Hill 1999, p. 2724.) Podophyllin is added at a 0.01% concentration, although a wide range of concentrations may be acceptable from 0.001% to 90% or greater, depending on the zinc chloride formulation employed.

[2] = inadvertent extravasation; far greater concentration and dosage than in the paste; tenderness, erythema, skin discoloration, swelling; cited from earlier work
[3] = tested on: HIV; conditions: cited from earlier work

mixing with the zinc chloride fixative paste [1] | paste consistency and viscosity after addition ([1]; paclitaxel in low concentration) | Structure (SMILES) | local skin reactions [2] | inactivation of HIV [3]
completely compatible and mix fully | – | O=c1[nH]cc(F)c(=O)[nH]1 [fluorouracil] | – | –
mixes completely and fully | remains unchanged | CC(=O)O[C@H]1C(=O)[C@@]2(C)[C@H]([C@H](OC(=O)c3ccccc3)[C@]3(O)C[C@H](OC(=O)[C@H](O)[C@@H](NC(=O)c4ccccc4)c4ccccc4)C(C)=C1C3(C)C)[C@]1(OC(C)=O)CO[C@@H]1C[C@@H]2O [paclitaxel] | mild | –
completely compatible and mix fully | – | NC(N)=O [urea] | – | –
– | – | [Cl-].[Cl-].[Zn+2] [zinc chloride] | – | inactivated

— US6558694B2, “Zinc chloride unit dose packaging, applicator, and method of use in treating cancer and other skin diseases” (priority 1999, dated 2003)
